Assay results: patent US12122763B2, “Substituted piperidines for androgen receptor degradation” (UBIX THERAPEUTICS, INC., priority 2020, dated 2024)

Molecular target: T1, Androgen Receptor (AR) protein (Homo sapiens, UniProt P10275, T878A)
T1 construct: endogenous in cells; host or cells: LNCaP
Assay: Androgen Receptor (AR) protein degradation assay in LNCaP cells, western blotting
Format: cell-based
Conditions: 20 h; for inhibition at 0.01 µM: 0.01 μM compound; for inhibition at 0.1 µM: 0.1 μM compound; for inhibition at 1 µM: 1 μM compound
How it was run: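 AR protein level was detected by western blot (ECL) against GAPDH or β-actin controls, with 8 μg lysate protein loaded per lane after BCA quantification. Lysates came from LNCaP cells exposed to test compound for 20 h, following 3 days of growth in RPMI/10% FBS.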

T1 sequence (P10275 whole entry T878A): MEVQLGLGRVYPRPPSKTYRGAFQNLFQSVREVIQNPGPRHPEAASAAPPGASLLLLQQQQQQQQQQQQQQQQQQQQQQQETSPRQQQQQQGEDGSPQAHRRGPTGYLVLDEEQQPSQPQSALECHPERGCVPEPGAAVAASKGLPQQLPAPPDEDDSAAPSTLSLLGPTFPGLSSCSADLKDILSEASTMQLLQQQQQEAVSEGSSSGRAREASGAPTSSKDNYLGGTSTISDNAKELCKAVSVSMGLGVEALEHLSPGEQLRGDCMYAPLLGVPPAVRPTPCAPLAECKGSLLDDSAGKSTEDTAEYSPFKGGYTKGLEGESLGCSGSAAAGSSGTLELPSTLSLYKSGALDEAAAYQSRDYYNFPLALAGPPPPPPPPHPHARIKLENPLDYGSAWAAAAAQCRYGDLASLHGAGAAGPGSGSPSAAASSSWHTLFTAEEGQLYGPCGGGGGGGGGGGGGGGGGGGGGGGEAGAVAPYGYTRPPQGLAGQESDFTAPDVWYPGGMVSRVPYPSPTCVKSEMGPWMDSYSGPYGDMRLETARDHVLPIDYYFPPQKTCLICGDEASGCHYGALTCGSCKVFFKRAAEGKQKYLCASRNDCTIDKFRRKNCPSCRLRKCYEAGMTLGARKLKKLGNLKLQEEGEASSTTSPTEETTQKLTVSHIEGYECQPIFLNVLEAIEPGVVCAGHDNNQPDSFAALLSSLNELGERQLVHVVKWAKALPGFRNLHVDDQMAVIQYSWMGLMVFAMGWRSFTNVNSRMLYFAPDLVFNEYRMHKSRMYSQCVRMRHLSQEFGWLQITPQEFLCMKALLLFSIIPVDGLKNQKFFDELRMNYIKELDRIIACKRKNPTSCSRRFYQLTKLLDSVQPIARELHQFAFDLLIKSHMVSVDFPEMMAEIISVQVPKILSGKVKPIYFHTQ
T1 sequence (Q96SW2 whole entry partner): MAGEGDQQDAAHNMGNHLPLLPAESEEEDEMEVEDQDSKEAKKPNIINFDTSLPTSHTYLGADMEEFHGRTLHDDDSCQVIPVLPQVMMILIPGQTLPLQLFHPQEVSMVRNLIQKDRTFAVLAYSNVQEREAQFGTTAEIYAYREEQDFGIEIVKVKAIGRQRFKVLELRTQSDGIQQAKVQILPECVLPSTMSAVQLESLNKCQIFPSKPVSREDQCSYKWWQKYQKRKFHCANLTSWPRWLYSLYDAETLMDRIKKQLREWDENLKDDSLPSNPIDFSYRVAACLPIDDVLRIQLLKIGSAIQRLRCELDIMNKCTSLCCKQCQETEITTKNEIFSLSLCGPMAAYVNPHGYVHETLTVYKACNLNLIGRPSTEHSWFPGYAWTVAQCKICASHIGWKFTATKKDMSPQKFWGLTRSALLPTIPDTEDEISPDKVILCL

Row | Structure (SMILES) | inhibition at 0.01 µM | inhibition at 0.1 µM | inhibition at 1 µM
1 | N#Cc1ccc(N2CCC(C(=O)Nc3ccc(N4CCC(CN5CCN(C6CCN(c7cccc8c7C(=O)N(C7CCC(=O)NC7=O)C8=O)CC6)CC5)CC4)cn3)CC2)cc1C(F)(F)F (stereo not drawn) [Example 76, 1-(4-cyano-3-(trifluoromethyl)phenyl)-N-(5-(4-((4-(1-(2-(2,6-dioxopiperidin-3-yl)-1,3-dioxoisoindolin-4-yl)piperidin-4-yl)piperazin-1-yl)methyl)piperidin-1-yl)pyridin-2-yl)piperidine-4-carboxamide] | 36% | 85% | 88%
2 | N#Cc1ccc(N2CCC(C(=O)Nc3ccc(N4CCC(CN5CC(N6CCN(c7ccc8c(c7)C(=O)N(C7CCC(=O)NC7=O)C8=O)CC6)C5)CC4)cn3)CC2)cc1C(F)(F)F (stereo not drawn) [Example 77, 1-(4-cyano-3-(trifluoromethyl)phenyl)-N-(5-(4-((3-(4-(2-(2,6-dioxopiperidin-3-yl)-1,3-dioxoisoindolin-5-yl)piperazin-1-yl)azetidin-1-yl)methyl)piperidin-1-yl)pyridin-2-yl)piperidine-4-carboxamide] | 46% | 96% | 97%
3 | N#Cc1ccc(N2CCC(C(=O)Nc3ccc(N4CCC(CN5CC(N6CCN(c7ccc8c(n7)CN(C7CCC(=O)NC7=O)C8=O)CC6)C5)CC4)cn3)CC2)cc1C(F)(F)F (stereo not drawn) [Example 78, 1-(4-cyano-3-(trifluoromethyl)phenyl)-N-(5-(4-((3-(4-(6-(2,6-dioxopiperidin-3-yl)-5-oxo-6,7-dihydro-5H-pyrrolo[3,4-b]pyridin-2-yl)piperazin-1-yl)azetidin-1-yl)methyl)piperidin-1-yl)pyridin-2-yl)piperidine-4-carboxamide] | 49% | 88% | 71%
4 | N#Cc1ccc(N2CCC(C(=O)Nc3ccc(N4CCC(CN5CC(CN6CCN(c7ccc8c(c7)C(=O)N(C7CCC(=O)NC7=O)C8=O)CC6)C5)CC4)cn3)CC2)cc1C(F)(F)F (stereo not drawn) [Example 79, 1-(4-cyano-3-(trifluoromethyl)phenyl)-N-(5-(4-((3-((4-(2-(2,6-dioxopiperidin-3-yl)-1,3-dioxoisoindolin-5-yl)piperazin-1-yl)methyl)azetidin-1-yl)methyl)piperidin-1-yl)pyridin-2-yl)piperidine-4-carboxamide] | 31% | 94% | 95%
5 | N#Cc1ccc(N2CCC(C(=O)Nc3ccc(N4CCC(CN5CC(CN6CCN(c7ccc8c(n7)CN(C7CCC(=O)NC7=O)C8=O)CC6)C5)CC4)cn3)CC2)cc1C(F)(F)F (stereo not drawn) [Example 80, 1-(4-cyano-3-(trifluoromethyl)phenyl)-N-(5-(4-((3-((4-(6-(2,6-dioxopiperidin-3-yl)-5-oxo-6,7-dihydro-5H-pyrrolo[3,4-b]pyridin-2-yl)piperazin-1-yl)methyl)azetidin-1-yl)methyl)piperidin-1-yl)pyridin-2-yl)piperidine-4-carboxamide] | 34% | 90% | 57%
6 | N#Cc1ccc(N2CCC(C(=O)Nc3ccc(N4CCC(CN5CCC(CN6CCN(c7ccc8c(c7)C(=O)N(C7CCC(=O)NC7=O)C8=O)CC6)CC5)CC4)cn3)CC2)cc1C(F)(F)F (stereo not drawn) [Example 81, 1-(4-cyano-3-(trifluoromethyl)phenyl)-N-(5-(4-((4-((4-(2-(2,6-dioxopiperidin-3-yl)-1,3-dioxoisoindolin-5-yl)piperazin-1-yl)methyl)piperidin-1-yl)methyl)piperidin-1-yl)pyridin-2-yl)piperidine-4-carboxamide] | 44% | 87% | 96%
7 | N#Cc1ccc(N2CCC(C(=O)Nc3ccc(N4CCC(CN5CC[C@H](CN6CCN(c7ccc8c(c7)C(=O)N(C7CCC(=O)NC7=O)C8=O)CC6)C5)CC4)cn3)CC2)cc1C(F)(F)F (stereo partly drawn) [Example 82, 1-(4-cyano-3-(trifluoromethyl)phenyl)-N-(5-(4-(((3S)-3-((4-(2-(2,6-dioxopiperidin-3-yl)-1,3-dioxoisoindolin-5-yl)piperazin-1-yl)methyl)pyrrolidin-1-yl)methyl)piperidin-1-yl)pyridin-2-yl)piperidine-4-carboxamide] | 33% | 87% | 95%
8 | N#Cc1ccc(N2CCC(C(=O)Nc3ccc(N4CCC(CN5CC[C@@H](CN6CCN(c7ccc8c(c7)C(=O)N(C7CCC(=O)NC7=O)C8=O)CC6)C5)CC4)cn3)CC2)cc1C(F)(F)F (stereo partly drawn) [Example 83, 1-(4-cyano-3-(trifluoromethyl)phenyl)-N-(5-(4-(((3R)-3-((4-(2-(2,6-dioxopiperidin-3-yl)-1,3-dioxoisoindolin-5-yl)piperazin-1-yl)methyl)pyrrolidin-1-yl)methyl)piperidin-1-yl)pyridin-2-yl)piperidine-4-carboxamide] | 25% | 87% | 96%
9 | CN(CC1CCN(c2ccc(NC(=O)C3CCN(c4ccc(C#N)c(C(F)(F)F)c4)CC3)nc2)CC1)CC1CCN(c2ccc3c(c2)C(=O)N(C2CCC(=O)NC2=O)C3=O)CC1 (stereo not drawn) [Example 84, 1-(4-cyano-3-(trifluoromethyl)phenyl)-N-(5-(4-((((1-(2-(2,6-dioxopiperidin-3-yl)-1,3-dioxoisoindolin-5-yl)piperidin-4-yl)methyl)(methyl)amino)methyl)piperidin-1-yl)pyridin-2-yl)piperidine-4-carboxamide] | 59% | 89% | 88%
10 | N#Cc1ccc(N2CCC(C(=O)Nc3ccc(N4CCC(CN5CC6CN(c7ccc8c(c7)C(=O)N(C7CCC(=O)NC7=O)C8=O)CC6C5)CC4)cn3)CC2)cc1C(F)(F)F (stereo not drawn) [Example 85, 1-(4-cyano-3-(trifluoromethyl)phenyl)-N-(5-(4-((5-(2-(2,6-dioxopiperidin-3-yl)-1,3-dioxoisoindolin-5-yl)hexahydropyrrolo[3,4-c]pyrrol-2(1H)-yl)methyl)piperidin-1-yl)pyridin-2-yl)piperidine-4-carboxamide] | 24% | 89% | 92%
11 | N#Cc1ccc(N2CCC(C(=O)Nc3ccc(N4CCC(CCN5CCN(c6ccc7c(c6)C(=O)N(C6CCC(=O)NC6=O)C7=O)CC5)CC4)cn3)CC2)cc1C(F)(F)F (stereo not drawn) [Example 86, 1-(4-cyano-3-(trifluoromethyl)phenyl)-N-(5-(4-(2-(4-(2-(2,6-dioxopiperidin-3-yl)-1,3-dioxoisoindolin-5-yl)piperazin-1-yl)ethyl)piperidin-1-yl)pyridin-2-yl)piperidine-4-carboxamide] | 65% | 94% | 96%
12 | N#Cc1ccc(N2CCC(C(=O)Nc3ccc(N4CCC(CCN5CCN(c6ccc7c(c6)C(=O)N(C6CCC(=O)NC6=O)C7=O)CC5)CC4)cn3)CC2)cc1Cl (stereo not drawn) [Example 87, 1-(3-chloro-4-cyanophenyl)-N-(5-(4-(2-(4-(2-(2,6-dioxopiperidin-3-yl)-1,3-dioxoisoindolin-5-yl)piperazin-1-yl)ethyl)piperidin-1-yl)pyridin-2-yl)piperidine-4-carboxamide] | 30% | 88% | 90%
